{"source": "paper PMC5845869", "about": "(Frontiers in Microbiology, 2018)", "key": {"[1]": {"tested_on": "Candida albicans ATCC 10231", "assay": "MIC, CLSI-M27A3 broth microdilution in RPMI 1640", "format": "cell-based", "method": "(§1) Susceptibility tests were performed in low ionic strength broth medium (LCM: 0.5% glucose, 0.25% yeast extract, 0.0125% peptone (w/v)) and in RPMI 1640 medium (Sigma-Aldrich, St Louis, MO, USA) supplemented with 0.03% (w/v) L-glutamine and buffered to pH 7.0 with 0.165 M 4-morpholinopropanesulfonic acid (Sigma-Aldrich, St Louis, MO, USA).\n(§2) The CLSI-M27A3 broth microdilution method (Clinical and Laboratory Standards Institute, [2008]) was applied to determinate the minimal inhibitory concentrations (MIC) of FLC (Sigma-Aldrich, St Louis, MO, USA) and rNFAP2 against the Candida isolates (10^3 cells ml^−1) under clinically approved test conditions. For this experiment, the rNFAP2 stock was prepared in bidistilled water, and FLC in dimethyl sulfoxide (DMSO). The investigated concentration range was 64–0.0625 μg ml^−1 for FCL and 100–0.39 μg ml^−1 for rNFAP2.\n(§3) LCM plates were incubated at 30°C, while RPMI 1640 plates at 35°C for 48 h without shaking, then the absorbance (OD620) was measured with a microtiter plate reader (SPECTROstar Nano, BMG Labtech, Ortenberg, Germany) after resuspension of the cultures with pipette. The absorbance of the untreated control cultures was referred to 100% growth in each case.\n(§4) All susceptibility tests were repeated at least two times in three replicates."}, "Candida krusei CBS 573 [2]": {"tested_on": "Candida krusei CBS 573", "assay": "MIC, CLSI-M27A3 broth microdilution in RPMI 1640", "format": "cell-based", "details": "Pichia kudriavzevii, CBS573, 48 h, pH 7; read-out: MIC of the drug alone (a)", "method": "as §1, §2, §3, §4"}, "[3]": {"tested_on": "Candida parapsilosis CBS 604", "assay": "MIC, CLSI-M27A3 broth microdilution in RPMI 1640", "format": "cell-based", "method": "as §1, §2, §3, §4"}, "[4]": {"tested_on": "Candida albicans ATCC 10231", "assay": "Checkerboard microdilution, rNFAP2 with FLC, RPMI 1640", "format": "cell-based", "details": "rNFAP2 combined with FLC; RPMI 1640, 10^3 cells ml^−1, 48 h, 35°C", "method": "(§5) Antifungal synergism between rNFAP2 and FLC were investigated using the checkerboard microdilution method (Eliopoulos and Moellering, [1996]) in RPMI 1640 medium applying the drug stock preparation method and cultivation conditions described in CLSI-M27A3 document (Clinical and Laboratory Standards Institute, [2008]). […] The fractional inhibitory concentration index (FICI) as a measure of synergism and antagonism was calculated (Johnson et al., [2004]). Synergism was defined as FICI≤0.5, indifference as 0.5 < FICI ≤ 4 and antagonism was defined when FICI > 4 (Odds, [2003]).\nas §3, §4"}, "[5]": {"tested_on": "Candida parapsilosis CBS 604", "assay": "Checkerboard microdilution, rNFAP2 with FLC, RPMI 1640", "format": "cell-based", "details": "rNFAP2 combined with FLC; RPMI 1640, 10^3 cells ml^−1, 48 h, 35°C", "method": "as §5, §3, §4"}, "Candida glabrata CBS 138 [6]": {"tested_on": "Candida glabrata CBS 138", "assay": "MIC, broth microdilution in LCM", "format": "cell-based", "details": "10^5 cells ml^−1, 48 h, 30°C, MIC = growth ≤ 5% (OD620)", "method": "as §1\n(§6) Antifungal susceptibility tests were performed with nNFAP2, rNFAP2, and sNFAP2 and its peptide fragments in LCM medium against yeast isolates (10^5 cells ml^−1) according to the broth microdilution method described by Tóth et al. ([2016]). Final drug concentration ranged from 25 to 0.098 μg ml^−1 for rNFAP2 and sNFAP2, and from 100 to 6.25 μg ml^−1 for the synthetic peptide fragments. The rNFAP2 was tested against nine yeast isolates, while the sNFAP2 and the synthetic peptide fragments against C. albicans ATCC 10231, C. krusei CBS 573, C. parapsilosis CBS 604, and S. cerevisiae SZMC 0644.\nas §3, §4"}, "[7]": {"tested_on": "Candida guilliermondii CBS 566", "assay": "MIC, broth microdilution in LCM", "format": "cell-based", "details": "10^5 cells ml^−1, 48 h, 30°C, MIC = growth ≤ 5% (OD620)", "method": "as §1, §6, §3, §4"}, "[8]": {"tested_on": "Candida lusitaniae CBS 6936", "assay": "MIC, broth microdilution in LCM", "format": "cell-based", "details": "10^5 cells ml^−1, 48 h, 30°C, MIC = growth ≤ 5% (OD620)", "method": "as §1, §6, §3, §4"}, "[9]": {"tested_on": "Candida tropicalis CBS 94", "assay": "MIC, broth microdilution in LCM", "format": "cell-based", "details": "10^5 cells ml^−1, 48 h, 30°C, MIC = growth ≤ 5% (OD620)", "method": "as §1, §6, §3, §4"}, "[10]": {"tested_on": "Schizosaccharomyces pombe SZMC 0142", "assay": "MIC, broth microdilution in LCM", "format": "cell-based", "details": "10^5 cells ml^−1, 48 h, 30°C, MIC = growth ≤ 5% (OD620)", "method": "as §1, §6, §3, §4"}, "[11]": {"tested_on": "Candida albicans ATCC 10231", "details": "LCM, 10^5 cells ml^−1, 48 h, 30°C; MIC = growth ≤ 5% (OD620)", "method": "as §1, §6, §3, §4"}, "Candida krusei CBS 573 [12]": {"tested_on": "Candida krusei CBS 573", "details": "LCM, 10^5 cells ml^−1, 48 h, 30°C; MIC = growth ≤ 5% (OD620)", "method": "as §1, §6, §3, §4"}, "[13]": {"tested_on": "Candida parapsilosis CBS 604", "details": "LCM, 10^5 cells ml^−1, 48 h, 30°C; MIC = growth ≤ 5% (OD620)", "method": "as §1, §6, §3, §4"}, "[14]": {"tested_on": "Saccharomyces cerevisiae SZMC 0644", "details": "LCM, 10^5 cells ml^−1, 48 h, 30°C; MIC = growth ≤ 5% (OD620)", "method": "as §1, §6, §3, §4"}, "Candida glabrata CBS 138 [15]": {"tested_on": "Candida glabrata CBS 138", "assay": "MIC, CLSI-M27A3 broth microdilution in RPMI 1640", "format": "cell-based", "details": "RPMI 1640 pH 7.0, 10^3 cells ml^−1, 48 h, 35°C; MIC = growth ≤ 5%", "method": "as §1, §2, §3, §4"}, "[16]": {"tested_on": "Candida guilliermondii CBS 566", "assay": "MIC, CLSI-M27A3 broth microdilution in RPMI 1640", "format": "cell-based", "details": "RPMI 1640 pH 7.0, 10^3 cells ml^−1, 48 h, 35°C; MIC = growth ≤ 5%", "method": "as §1, §2, §3, §4"}, "[17]": {"tested_on": "Candida lusitaniae CBS 6936", "assay": "MIC, CLSI-M27A3 broth microdilution in RPMI 1640", "format": "cell-based", "details": "RPMI 1640 pH 7.0, 10^3 cells ml^−1, 48 h, 35°C; MIC = growth ≤ 5%", "method": "as §1, §2, §3, §4"}, "[18]": {"tested_on": "Candida tropicalis CBS 94", "assay": "MIC, CLSI-M27A3 broth microdilution in RPMI 1640", "format": "cell-based", "details": "RPMI 1640 pH 7.0, 10^3 cells ml^−1, 48 h, 35°C; MIC = growth ≤ 5%", "method": "as §1, §2, §3, §4"}, "Candida krusei CBS 573 [19]": {"tested_on": "Candida krusei CBS 573", "assay": "Checkerboard microdilution, rNFAP2 with FLC, RPMI 1640", "format": "cell-based", "details": "rNFAP2 combined with FLC; RPMI 1640, 10^3 cells ml^−1, 48 h, 35°C", "method": "as §5, §3, §4"}, "[20]": {"assay": "Thermal unfolding followed by ECD spectroscopy", "format": "physicochemical", "method": "ECD spectroscopic measurements were performed using a Jasco-J815 spectropolarimeter (JASCO Corporation, Tokyo, Japan), in the far-UV range (185–260 nm). Protein samples were dissolved in pure H2O in approximately 0.1 mg ml^−1 concentration and measured in a 0.1 cm pathlength quartz cuvette. First, ECD spectra of samples were recorded at 25°C with a scan speed of […]. […] The system was allowed to equilibrate for 1 min before measurements were taken at each temperature point.\nThe obtained melting curves were fitted with an inverse sigmoidal function of which inflection point designated the melting temperature (Tm) of the native protein structure.\nECD spectra were also recorded at 95°C, the final temperature of the thermal unfolding experiments, then samples were allowed to cool and measured again after 5 min of equilibration at 25°C. The reported spectra are accumulations of 10 scans, from which the similarly recorded, corresponding solvent spectrum was subtracted. Data are given as molar ellipticities. Accurate protein sample concentrations for the corrections of ECD spectra were determined using analytical RP-HPLC."}, "[21]": {"details": "RPMI 1640 pH 7.0, 10^3 cells ml^−1, 48 h, 35°C, MIC = growth ≤ 5%"}}, "note": "Where two headings read alike, the source gives them in different places. Marks after values point to notes of the source that are not given here. Ends that are not written are not given here."}
{"molecule": "OC(Cn1cncn1)(Cn1cncn1)c1ccc(F)cc1F", "note": "[FLC, fluconazole, reference compound]", "values": [{"measurement": "MIC", "setting": "[1]; Candida albicans, ATCC10231, 48 h, pH 7, read-out: MIC of the drug alone (a)", "result": 1, "unit": "µg/mL"}, {"measurement": "MIC", "setting": "Candida krusei CBS 573 [2]", "result": 64, "unit": "µg/mL"}, {"measurement": "MIC", "setting": "[3]; Lodderomyces parapsilosis, CBS604, 48 h, pH 7, read-out: MIC of the drug alone (a)", "result": 8, "unit": "µg/mL"}, {"measurement": "MIC of the drug in combination (c)", "setting": "[4]", "result": 0.25, "unit": "µg/mL"}, {"measurement": "MIC of the drug in combination (c)", "setting": "[5]", "result": 1, "unit": "µg/mL"}]}
{"molecule": "IATSPYYACNCPNNCKHKKGSGCKYHSGPSDKSKVISGKCEWQGGQLNCIAT (disulfide (positions not given here)) [rNFAP2, recombinant NFAP2 produced by P. chrysogenum nfap2]", "values": [{"measurement": "MIC", "setting": "Candida glabrata CBS 138 [6]", "result": 1.56, "unit": "µg/mL"}, {"measurement": "MIC", "setting": "[7]", "result": 1.56, "unit": "µg/mL"}, {"measurement": "MIC", "setting": "[8]", "result": 3.125, "unit": "µg/mL"}, {"measurement": "MIC", "setting": "[9]", "result": 1.56, "unit": "µg/mL"}, {"measurement": "MIC", "setting": "[10]", "result": 1.56, "unit": "µg/mL"}, {"measurement": "MIC", "setting": "[11]", "result": 6.25, "unit": "µg/mL"}, {"measurement": "MIC", "setting": "Candida krusei CBS 573 [12]", "result": 12.5, "unit": "µg/mL"}, {"measurement": "MIC", "setting": "[13]", "result": 1.56, "unit": "µg/mL"}, {"measurement": "MIC", "setting": "[14]", "result": 3.125, "unit": "µg/mL"}, {"measurement": "MIC of the drug alone (a)", "setting": "[1]; [21]", "result": "200^* μg ml^−1"}, {"measurement": "MIC of the drug alone (a)", "setting": "Candida glabrata CBS 138 [15]", "result": 12.5, "unit": "µg/mL"}, {"measurement": "MIC of the drug alone (a)", "setting": "[16]", "result": 3.125, "unit": "µg/mL"}, {"measurement": "MIC of the drug alone (a)", "setting": "[17]", "result": ">100", "unit": "µg/mL"}, {"measurement": "MIC of the drug alone (a)", "setting": "[3]; [21]", "result": 100, "unit": "µg/mL"}, {"measurement": "MIC of the drug alone (a)", "setting": "[18]", "result": ">100", "unit": "µg/mL"}, {"measurement": "MIC of the drug in combination (c)", "setting": "[4]", "result": 6.25, "unit": "µg/mL"}, {"measurement": "MIC of the drug in combination (c)", "setting": "Candida krusei CBS 573 [19]", "result": 6.25, "unit": "µg/mL"}, {"measurement": "MIC of the drug in combination (c)", "setting": "[5]", "result": 6.25, "unit": "µg/mL"}, {"measurement": "thermal denaturation reversibility", "setting": "[20]; ECD at 95°C, then re-measured after cooling, 5 min at 25°C", "result": "reversible"}, {"measurement": "Tm (melting temperature of the native protein structure)", "setting": "[20]; ECD at 228 nm, 25 to 95°C at 1°C min^−1, approx. 0.1 mg ml^−1 in H2O, inflection of sigmoidal fit", "result": 75.79, "unit": "°C"}, {"measurement": "native fold remains intact up to", "setting": "[20]; thermal unfolding followed by ECD", "result": "approximately 70 °C"}]}
